Values quoted from earlier work in patent US20030082168A1, “Compositions and methods for facilitating weight loss” (priority 2001, published 2003).
Read-outs that look alike come from different tables or passages of the source.

Tests used:
[1] = for Weight of control group above CLA group: after 6 weeks
[2] = 2% CLA in diet; P=0.01
[3] = system: intercapsular brown adipose tissue (IBAT); settings: caffeine alone

Compound	Weight of control group above CLA group ([1]; high-fat diet, P<0.0001)	Energy intake, growth rate, adipose depot weight and carcass lipid ([1]; independent of diet composition)	Weight of control group above CLA group ([1]; low-fat diet, P<0.005)	Metabolic rate ([1]; mouse, in vivo)	Nighttime respiratory quotient ([1]; mouse, in vivo)	Subcutaneous fat, change vs sunflower oil [2]	IBAT oxygen uptake [3]
Conjugated linoleic acid [CLA]	5.7 g	significantly reduced	3.2 g	significantly increased	decreased	−6.8%	
Cn1c(=O)c2c(ncn2C)n(C)c1=O [Caffeine]							does not increase
